Data published in patent US20110311532A1, “INHIBITION OF COMPLEMENT AND CELLULAR ACTIVATION” (priority 2007, published 2011).
Positions of bridges follow the written chain, without caps; N, C: chain ends. Non-standard residues stand in square brackets, D forms with d. Residues, ends and D or L forms follow the SMILES beside them. hArg = N=C(N)NCCCC[C@H](N)C(=O)O; Mpa = O=C(O)CCS

B1: Abciximab (antibody, chains of the INN, looked up, V domains shown)
VH: EVQLQQSGTVLARPGASVKMSCEASGYTFTNYWMHWVKQRPGQGLEWIGAIYPGNSDTSYIQKFKGKAKLTAVTSTTSVYMELSSLTNEDSAVYYCTLYDGYYVFAYWGQGTLVTVSA
VL: EIVLTQSPVTLSVTPGDSVSLSCRASRDISNNLHWFQQTSHESPRLLIKYASQSMSGIPSRFSGSGSGTDFTLSINSVETEDFGMYFCQQTNSWPYTFGGGTKLEIK
modifications: Fab
notes: monoclonal F(ab) fragment GPIIb/IIIa antagonist

Legend:
[1] = system: platelets; assay: Tubing loop model, platelet activation by flow cytometry (CD61/CD62P); format: cell-based, human; details: for effect on Fc mediated platelet activation (CD62P): anti-platelet agent at various concentrations with 400 μg/ml NM4047
Method: (§1) In the following examples, heparinized whole blood from a donor volunteer was circulated in a PVC tubing at 37° C. to allow complement and cellular activation. It is known that alternative complement pathway is activated when blood comes in contact with the artificial surface of the PVC tubing. As a result, complement is activated to release inflammatory molecules. These inflammatory molecules activate neutrophils, monocytes and platelets. The monoclonal antibody NM4047, inhibits complement activation in vitro in human serum. NM4047 inhibits C3a, C5a, and C5b-9 in whole blood in the tubing loop model. […] We attributed these findings to the Fc region on the IgG1. Removal of Fc domain with Ficin generated an F(ab′)2 molecule which inhibited C3a, C5a, C5b-9.
NM4047 is an IgG1 monoclonal antibody that was identified as a blocker of alternative complement pathway activation. The monoclonal antibody was evaluated for inhibition of complement and cellular activation in a whole blood based extracorporeal circulation model. In this model, whole heparinzed human blood was diluted with plasmalyte and circulated in a PVC tubing loop for 2 h at 37° C. to allow complement activation to occur. A total of 21 tubing loops were prepared. […] Nine tubing loops received 400 μg/ml concentration of NM4047 and the other nine received 100 μg/ml concentration of NM4047. Tubing loops were then rotated for 2 h at 37° C. Following the rotation, aliquots of the blood were stained for flow cytometry for the evaluation of cellular activation. A separate aliquot of blood was centrifuged to separate plasma, which was used for measuring complement activation products in ELISA. […] However, activation of neutrophils, monocytes, and platelets was not inhibited. Cellular activation was evaluated using flow cytometry methods. Aliquots of blood sample were stained with FITC labeled CD15 for neutrophils, FITC labeled CD14 for monocytes, and FITC labeled CD61 for Platelets. The cells were also stained with activation markers PE labeled CD11b for neutrophils and monocytes, and PE labeled CD62P for platelets. The staining was done in three groups, one group containing CD15/CD11b, second group contained CD14/CD11b, and the third group contained CD61/CD62P antibodies. Following staining, the cells were lysed with lysis buffer, centrifuged to pellet the cells. After a quick wash with 1% BSA/PBS, the cells were suspended in 1% paraformaldehyde buffer. Cell populations were read in the BD-LSR 1 and Cell Quest software. The raw data taken from Cell Quest were analyzed using Win List software from Verity, populations were measured using Ln Median shifts in the activation marker in the case of neutrophils and monocytes, and population percentage shifts for platelets. The data was then plotted on MicroCal Origin software. […] The lack of cellular inhibition could only be explained by the fact that the IgG1 had the Fc region. To determine if the predicted Fc is the cause of the observed cellular activation, IgG1 was digested with Ficin protease.
NM4047 (IgG1) monoclonal antibody was evaluated for inhibition of complement and cellular activation in a whole blood based extracorporeal circulation model in the presence of ReoPro. ReoPro is a GPIIbIIIa monoclonal antibody that binds resting and activated platelets. In this experiment, heparinzed human blood was diluted with plasmalyte and circulated in a PVC tubing loop for 2 h at 37° C. to allow complement activation to occur. A total of 21 tubing loops were prepared. […] Nine tubing loops received 400 μg/ml concentration of NM4047 and the other nine received 100 μg/ml concentration of NM4047. All samples other than controls received 10 μg/ml of ReoPro (clinical material). All tubing loops were then rotated for 2 h at 37° C. Following the rotation, aliquots of the blood were stained for flow cytometry for the evaluation of cellular activation. […]

[2] = system: neutrophils; assay: Tubing loop model, neutrophil activation by flow cytometry (CD15/CD11b); format: cell-based, human; details: anti-platelet agent in combination with NM4047
Method: as §1
(§2) NM4047 is an IgG1 monoclonal antibody that was identified as a blocker of alternative complement pathway activation. The monoclonal antibody was evaluated for inhibition of complement and cellular activation in a whole blood based extracorporeal circulation model. In this model, whole heparinzed human blood was diluted with plasmalyte and circulated in a PVC tubing loop for 2 h at 37° C. to allow complement activation to occur. A total of 21 tubing loops were prepared. […] Nine tubing loops received 400 μg/ml concentration of NM4047 and the other nine received 100 μg/ml concentration of NM4047. Tubing loops were then rotated for 2 h at 37° C. Following the rotation, aliquots of the blood were stained for flow cytometry for the evaluation of cellular activation. A separate aliquot of blood was centrifuged to separate plasma, which was used for measuring complement activation products in ELISA. […] Cellular activation was evaluated using flow cytometry methods. […] Cell populations were read in the BD-LSR 1 and Cell Quest software. The raw data taken from Cell Quest were analyzed using Win List software from Verity, populations were measured using Ln Median shifts in the activation marker in the case of neutrophils and monocytes, and population percentage shifts for platelets. […]

[3] = system: monocytes; assay: Tubing loop model, monocyte activation by flow cytometry (CD14/CD11b); format: cell-based, human; details: anti-platelet agent in combination with NM4047
Method: as §1, §2

[4] = system: complement activation; assay: Tubing loop model, overall complement activation or inhibition; format: biochemical, human; details: anti-platelet agent in combination with NM4047
Method: as §2, with “activation.” for “activation. A separate aliquot of blood was centrifuged to separate plasma, which was used for measuring complement activation products in ELISA.”
NM4047 (IgG1) monoclonal antibody was evaluated for inhibition of complement and cellular activation in a whole blood based extracorporeal circulation model in the presence of ReoPro. […] Cellular activation was evaluated using flow cytometry methods. […]

[5] = system: erythrocytes; assay: Hemolysis of erythrocytes in tubing loop experiments; format: cell-based, human; details: high concentration doses; tested at 5-50 μg/ml
From the text: In this example, we evaluated the effects of Aspirin a commonly used inhibitor of platelet activation. Aspirin is also used as a standard of care for cardiac procedures. […] The tubing loop experiments presented in various examples above remained the same. The only difference was in the type of test agent used across these experiments. While good results were noticed with ReoPro and Aggrastat, the cost of such drugs may be prohibitive. In such cases, aspirin may become a viable option.

Molecule	total platelet activation ([1]; Integrillin 100 μg/ml with 400 μg/ml NM4047)	effect on Fc mediated platelet activation (CD62P) [1]	effect on neutrophil activation [2]	effect on monocyte activation [3]	effect on level of complement inhibition by NM4047 [4]	hemolysis of erythrocytes [5]	concentration achieving complete inhibition of platelet activation ([1]; with 400 μg/ml NM4047, 1 to 20 μg/ml tested) [µg/mL]	inhibition of platelet activation ([1]; ReoPro 10 μg/ml with NM4047 400 or 100 μg/ml) [%]	platelet activation in samples containing IgG2 antibody ([1]; ReoPro together with IgG2 antibody)	concentration at which effect on platelet inhibition starts to vanish ([1]; with 400 μg/ml NM4047) [µg/mL]
N=C(N)NCCCC[C@@H]1NC(=O)CCSSC[C@@H](C(N)=O)NC(=O)[C@@H]2CCCN2C(=O)[C@H](Cc2c[nH]c3ccccc23)NC(=O)[C@H](CC(=O)O)NC(=O)CNC1=O [Integrillin, Eptifibatide] ([Mpa][hArg]GDWPC-NH2; disulfide 1-7)	at least 4 fold	does not inhibit								
CC(=O)Oc1ccccc1C(=O)O [Aspirin]		inhibits	only partial effect	only partial effect	did not alter	caused hemolysis				
CCCCS(=O)(=O)N[C@@H](Cc1ccc(OCCCCC2CCNCC2)cc1)C(=O)O [Aggrastat, Tirofiban]		highly potent	no effect	no effect			1			
B1		dose dependent	does not inhibit	does not inhibit	did not affect			~100	inhibited	0.5
